Read-outs that look alike come from different tables or passages of the source.
Assays:
primary human T-cells [1] = test system: primary human T-cells
primary human T-cells [2] = experiment: Proliferation assay after 5 days (CellTiter-Glo, CD3 stimulation; PBS counter screen); type: cell-based; conditions: Homo sapiens, T-cell, 120 h, CD3 stimulation; for Emax: 5 days, normalized to reference compound A1 as stimulator control = 100%, DMSO neutral control, read-out: Emax proliferation (% activation); for EC50: primary human T-cells, CellTiter-Glo after 5 days, EC50 of fitted sigmoidal curve, read-out: Tcell Proliferation CD3 EC50
Procedure, shortened: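 Read-out: CellTiter-Glo 2.0 luminescence (ATP ∝ cell number) at day 5 after compound addition. Compounds activating unstimulated cells or reducing viability flagged.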

| Structure (SMILES) | EC50 (primary human T-cells [1]) [nM] | Emax (primary human T-cells [2]) [%] | EC50 (primary human T-cells [2]) [nM] |
| --- | --- | --- | --- |
| COCC1(Nc2nnc(-c3ccc4c(c3)N(Cc3ccc(Cl)cc3)C(=O)[C@@H](N)CS4(=O)=O)o2)CC(F)(F)C1 [Example 403, (3R)-3-amino-5-[(4-chlorophenyl)methyl]-7-[5-[[3,3-difluoro-1-(methoxymethyl)cyclobutyl]amino]-1,3,4-oxadiazol-2-yl]-1,1-dioxo-2,3-dihydro-1λ^6,5-benzothiazepin-4-one] | 3680 | 83 | 1150 |
| N[C@H]1CS(=O)(=O)c2ccc(-c3nnc(N4CC5(CCCO5)C4)o3)cc2N(Cc2ccc(Cl)cc2)C1=O [Example 404, (3R)-3-amino-5-[(4-chlorophenyl)methyl]-7-[5-(5-oxa-2-azaspiro[3.4]octan-2-yl)-1,3,4-oxadiazol-2-yl]-1,1-dioxo-2,3-dihydro-1λ^6,5-benzothiazepin-4-one] | 8110 | 101 | 2350 |
| N[C@H]1CS(=O)(=O)c2ccc(-c3nnc(N4CC5(CCCOC5)C4)o3)cc2N(Cc2ccc(Cl)cc2)C1=O [Example 405, (3R)-3-amino-5-[(4-chlorophenyl)methyl]-7-[5-(6-oxa-2-azaspiro[3.5]nonan-2-yl)-1,3,4-oxadiazol-2-yl]-1,1-dioxo-2,3-dihydro-1λ^6,5-benzothiazepin-4-one] | 1320 | 86 | 1080 |
| N[C@H]1CS(=O)(=O)c2ccc(-c3nnc(N4CCOC5CC54)o3)cc2N(Cc2ccc(Cl)cc2)C1=O (stereo partly drawn) [Example 408, (3R)-3-amino-5-[(4-chlorophenyl)methyl]-7-[5-(2-oxa-5-azabicyclo[4.1.0]heptan-5-yl)-1,3,4-oxadiazol-2-yl]-1,1-dioxo-2,3-dihydro-1λ^6,5-benzothiazepin-4-one] | > 10000 | 88 | 4890 |
| N[C@H]1CS(=O)(=O)c2ccc(-c3nnc(N4CCOCC4)o3)cc2N(Cc2ccc(Cl)cc2)C1=O [Example 410, (3R)-3-amino-5-[(4-chlorophenyl)methyl]-7-(5-morpholino-1,3,4-oxadiazol-2-yl)-1,1-dioxo-2,3-dihydro-1λ^6,5-benzothiazepin-4-one] | 7130 | 109 | 1160 |
| N[C@H]1CS(=O)(=O)c2ccc(-c3nnc(N4CCOC5(CC5)C4)o3)cc2N(Cc2ccc(Cl)cc2)C1=O [Example 411, (3R)-3-amino-5-[(4-chlorophenyl)methyl]-7-[5-(4-oxa-7-azaspiro[2.5]octan-7-yl)-1,3,4-oxadiazol-2-yl]-1,1-dioxo-2,3-dihydro-1λ^6,5-benzothiazepin-4-one] | > 10000 | 78 | 454 |
| N[C@H]1CS(=O)(=O)c2ccc(-c3nnc(C4(N)CCCC4)o3)cc2N(Cc2ccc(OC(F)(F)F)cc2)C1=O [Example 414, (3R)-3-amino-7-[5-(1-aminocyclopentyl)-1,3,4-oxadiazol-2-yl]-1,1-dioxo-5-[[4-(trifluoromethoxy)phenyl]methyl]-2,3-dihydro-1λ^6,5-benzothiazepin-4-one] | 4390 | 83 | 2590 |
| N[C@H]1CS(=O)(=O)c2ccc(-c3nnc(C(F)(F)C(F)(F)F)o3)cc2N(Cc2ccc(OC(F)(F)F)cc2)C1=O [Example 415, (3R)-3-amino-1,1-dioxo-7-[5-(1,1,2,2,2-pentafluoroethyl)-1,3,4-oxadiazol-2-yl]-5-[[4-(trifluoromethoxy)phenyl]methyl]-2,3-dihydro-1λ^6,5-benzothiazepin-4-one] | 443 | 64 | 6230 |
| N[C@H]1CS(=O)(=O)c2ccc(-c3nnc(C4(N)CCOCC4)o3)cc2N(Cc2ccc(OC(F)(F)F)cc2)C1=O [Example 418, (3R)-3-amino-7-[5-(4-aminotetrahydropyran-4-yl)-1,3,4-oxadiazol-2-yl]-1,1-dioxo-5-[[4-(trifluoromethoxy)phenyl]methyl]-2,3-dihydro-1λ^6,5-benzothiazepin-4-one] | 5740 | 52 | 9500 |
| CNC(C)(C)c1nnc(-c2ccc3c(c2)N(Cc2ccc(OC(F)(F)F)cc2)C(=O)[C@@H](N)CS3(=O)=O)o1 [Example 419, (3R)-3-amino-7-[5-[1-methyl-1-(methylamino)ethyl]-1,3,4-oxadiazol-2-yl]-1,1-dioxo-5-[[4-(trifluoromethoxy)phenyl]methyl]-2,3-dihydro-1λ^6,5-benzothiazepin-4-one] | 1510 | 62 | 7270 |
| CC(C)(C#N)c1nnc(-c2ccc3c(c2)N(Cc2ccc(OC(F)(F)F)cc2)C(=O)[C@@H](N)CS3(=O)=O)o1 [Example 420, 2-[5-[(3R)-3-amino-1,1,4-trioxo-5-[[4-(trifluoromethoxy)phenyl]methyl]-2,3-dihydro-1λ^6,5-benzothiazepin-7-yl]-1,3,4-oxadiazol-2-yl]-2-methyl-propanenitrile] | 1350 | 167 | 1590 |
| CN1CC(c2nnc(-c3ccc4c(c3)N(Cc3ccc(OC(F)(F)F)cc3)C(=O)[C@@H](N)CS4(=O)=O)o2)CC(F)(F)C1 (stereo partly drawn) [Example 421, (3R)-3-amino-7-[5-(5,5-difluoro-1-methyl-3-piperidyl)-1,3,4-oxadiazol-2-yl]-1,1-dioxo-5-[[4-(trifluoromethoxy)phenyl]methyl]-2,3-dihydro-1λ^6,5-benzothiazepin-4-one] | 3240 | 123 | 2480 |
| COC(=O)N1CC2CC(c3nnc(-c4ccc5c(c4)N(Cc4ccc(OC(F)(F)F)cc4)C(=O)[C@@H](N)CS5(=O)=O)o3)(C2)C1 [Example 422, Methyl 1-[5-[(3R)-3-amino-1,1,4-trioxo-5-[[4-(trifluoromethoxy)phenyl]methyl]-2,3-dihydro-1λ^6,5-benzothiazepin-7-yl]-1,3,4-oxadiazol-2-yl]-3-azabicyclo[3.1.1]heptane-3-carboxylate] | 835 | 102 | 1830 |
| COC(=O)N1CCC(c2nnc(-c3ccc4c(c3)N(Cc3ccc(OC(F)(F)F)cc3)C(=O)[C@@H](N)CS4(=O)=O)o2)C1 (stereo partly drawn) [Example 423, methyl 3-[5-[(3R)-3-amino-1,1,4-trioxo-5-[[4-(trifluoromethoxy)phenyl]methyl]-2,3-dihydro-1λ^6,5-benzothiazepin-7-yl]-1,3,4-oxadiazol-2-yl]pyrrolidine-1-carboxylate] | 1500 | 78 | 1720 |
| COC(F)(c1nnc(-c2ccc3c(c2)N(Cc2ccc(OC(F)(F)F)cc2)C(=O)[C@@H](N)CS3(=O)=O)o1)C(F)(F)F (stereo partly drawn) [Example 424, (3R)-3-amino-1,1-dioxo-7-[5-(1,2,2,2-tetrafluoro-1-methoxy-ethyl)-1,3,4-oxadiazol-2-yl]-5-[[14-(trifluoromethoxy)phenyl]methyl]-2,3-dihydro-1λ^6,5-benzothiazepin-4-one] | 69.4 | 88 | 72.3 |
| CC(C)(C)c1nnc(-c2ccc3c(c2)N(Cc2ccc(OCC(F)(F)F)cc2)C(=O)[C@@H](N)CS3(=O)=O)o1 [Example 429, (3R)-3-amino-7-(5-tert-butyl-1,3,4-oxadiazol-2-yl)-1,1-dioxo-5-[[4-(2,2,2-trifluoroethoxy)phenyl]methyl]-2,3-dihydro-1λ^6,5-benzothiazepin-4-one] | 960 | 103 | 4850 |
| CC(C)(C)c1nnc(-c2ccc3c(c2)N(Cc2ccc(OCC4CC4)cc2)C(=O)[C@@H](N)CS3(=O)=O)o1 [Example 431, (3R)-3-amino-7-(5-tert-butyl-1,3,4-oxadiazol-2-yl)-5-[[4-(cyclopropylmethoxy)phenyl]methyl]-1,1-dioxo-2,3-dihydro-1λ^6,5-benzothiazepin-4-one] | 4080 | 110 | 1930 |
| CC(C)(C)c1nnc(-c2ccc3c(c2)N(Cc2ccc(OCC(F)F)cc2)C(=O)[C@@H](N)CS3(=O)=O)o1 [Example 432, (3R)-3-amino-7-(5-tert-butyl-1,3,4-oxadiazol-2-yl)-5-[[4-(2,2-difluoroethoxy)phenyl]methyl]-1,1-dioxo-2,3-dihydro-1λ^6,5-benzothiazepin-4-one] | 2700 | 103 | 1440 |
| CC(C)(C)c1nnc(-c2ccc3c(c2)N(Cc2ccc(OCC4CCOCC4)cc2)C(=O)[C@@H](N)CS3(=O)=O)o1 [Example 433, (3R)-3-amino-7-(5-tert-butyl-1,3,4-oxadiazol-2-yl)-1,1-dioxo-5-[[4-(tetrahydropyran-4-ylmethoxy)phenyl]methyl]-2,3-dihydro-1λ^6,5-benzothiazepin-4-one] | 5600 | 105 | 4790 |
| CC(C)(C)c1nnc(-c2ccc3c(c2)N(Cc2ccc(OC4CCCCC4)cc2)C(=O)[C@@H](N)CS3(=O)=O)o1 [Example 434, (3R)-3-amino-7-(5-tert-butyl-1,3,4-oxadiazol-2-yl)-5-[[4-(cyclohexoxy)phenyl]methyl]-1,1-dioxo-2,3-dihydro-1λ^6,5-benzothiazepin-4-one] | 6160 | 130 |  |
| CC(C)(C)c1nnc(-c2ccc3c(c2)N(Cc2ccc(OC4CC4)cc2)C(=O)[C@@H](N)CS3(=O)=O)o1 [Example 435] | 3280 | 117 | 671 |
| CC(C)(C)c1nnc(-c2ccc3c(c2)N(Cc2ccc(OC4CCOCC4)cc2)C(=O)[C@@H](N)CS3(=O)=O)o1 [Example 436, (3R)-3-amino-7-(5-tert-butyl-1,3,4-oxadiazol-2-yl)-1,1-dioxo-5-[(4-tetrahydropyran-4-yloxyphenyl)methyl]-2,3-dihydro-1λ^6,5-benzothiazepin-4-one] | 4230 | 66 | 940 |

From US20240368150A1 (Hoffmann-La Roche Inc., priority 2021, published 2024)
